# PubChem BioAssay AID1963833 (Molecular Pharmacology Branch, DTP, NCI, 2024)
# pIC50: −log10 of the molar value.
# Test system: 883617-216-R-J1-PDC complex spheroid viability
# Test: Anticancer human tumor 883617-216-R-J1-PDC patient-derived bladder carcinoma cell line growth inhibition [POLQ]
# Details: for pIC50: curve of first compound; for viability, T/C: stronger effect = lower value
# Summary of the method: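 Growth inhibition in 3D: complex spheroids (tumor PDC, HUVEC, MSC) treated with POLQ inhibitor combinations; where Cmax unknown, highest tested concentration 10 microM, except SN-38 at 1 microM.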
# 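Also: spheroids exposed to compounds for seven days before readout.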
# 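For viability, T/C in this document: 100% = DMSO vehicle control viability.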
smiles,measurement,setting,value
COc1ccc([C@@H](O)c2cc(-c3ncnc4cc(N5CCOCC5)ccc34)c(F)cc2Cl)nn1 + Cc1cccc(N(C)C(=O)C2C(O)CCN2c2nc(C)cc(C(F)(F)F)c2C#N)c1,pIC50,second compound 0.0316 µM,5.57
same,pIC50,second compound 0.1 µM,5.66
same,pIC50,second compound 0.316 µM,5.60
same,pIC50,second compound 1 µM,5.60
same,pIC50,second compound 3.16 µM,5.61
same,pIC50,second compound 10 µM,5.45
same,"viability, T/C","second compound 0.0316 µM, first compound 0.0316 µM",90.4%
same,"viability, T/C","second compound 0.0316 µM, first compound 0.1 µM",105%
same,"viability, T/C","second compound 0.0316 µM, first compound 0.316 µM",76%
same,"viability, T/C","second compound 0.0316 µM, first compound 1 µM",75.5%
same,"viability, T/C","second compound 0.0316 µM, first compound 3.16 µM",42.4%
same,"viability, T/C","second compound 0.0316 µM, first compound 10 µM",36.9%
same,"viability, T/C","second compound 0.1 µM, first compound 0.0316 µM",98.3%
same,"viability, T/C","second compound 0.1 µM, first compound 0.1 µM",84%
same,"viability, T/C","second compound 0.1 µM, first compound 0.316 µM",85.8%
same,"viability, T/C","second compound 0.1 µM, first compound 1 µM",67.9%
same,"viability, T/C","second compound 0.1 µM, first compound 3.16 µM",41%
same,"viability, T/C","second compound 0.1 µM, first compound 10 µM",31.4%
same,"viability, T/C","second compound 0.316 µM, first compound 0.0316 µM",99%
same,"viability, T/C","second compound 0.316 µM, first compound 0.1 µM",101%
same,"viability, T/C","second compound 0.316 µM, first compound 0.316 µM",86.3%
same,"viability, T/C","second compound 0.316 µM, first compound 1 µM",71.6%
same,"viability, T/C","second compound 0.316 µM, first compound 3.16 µM",43.5%
same,"viability, T/C","second compound 0.316 µM, first compound 10 µM",33.4%
same,"viability, T/C","second compound 1 µM, first compound 0.0316 µM",100%
same,"viability, T/C","second compound 1 µM, first compound 0.1 µM",98.3%
same,"viability, T/C","second compound 1 µM, first compound 0.316 µM",81.9%
same,"viability, T/C","second compound 1 µM, first compound 1 µM",63.4%
same,"viability, T/C","second compound 1 µM, first compound 3.16 µM",48.4%
same,"viability, T/C","second compound 1 µM, first compound 10 µM",32.8%
same,"viability, T/C","second compound 3.16 µM, first compound 0.0316 µM",107%
same,"viability, T/C","second compound 3.16 µM, first compound 0.1 µM",99.8%
same,"viability, T/C","second compound 3.16 µM, first compound 0.316 µM",90.4%
same,"viability, T/C","second compound 3.16 µM, first compound 1 µM",61.4%
same,"viability, T/C","second compound 3.16 µM, first compound 3.16 µM",49.7%
same,"viability, T/C","second compound 3.16 µM, first compound 10 µM",33.8%
same,"viability, T/C","second compound 10 µM, first compound 0.0316 µM",117%
same,"viability, T/C","second compound 10 µM, first compound 0.1 µM",92.5%
same,"viability, T/C","second compound 10 µM, first compound 0.316 µM",90.5%
same,"viability, T/C","second compound 10 µM, first compound 1 µM",65%
same,"viability, T/C","second compound 10 µM, first compound 3.16 µM",52.3%
same,"viability, T/C","second compound 10 µM, first compound 10 µM",35.6%
